From patent publication US20070049564A1 (Wyeth, priority 2005, published 2007)
Converted amounts (≈) assume the structure as drawn. Like-named read-outs stand apart in the source and are kept apart here.

Columns and labels:
E. coli GC 2236 = assay: MIC, broth microdilution; conditions: Escherichia coli
E. coli GC 2231 = assay: MIC, broth microdilution; conditions: Escherichia coli
E. coli GC 2235 = assay: MIC, broth microdilution; conditions: Escherichia coli
E. coli GC 2232 = assay: MIC, broth microdilution; conditions: Escherichia coli
E. coli GC 2234 = assay: MIC, broth microdilution; conditions: Escherichia coli
E. coli GC 4559 = assay: MIC, broth microdilution; conditions: Escherichia coli
S. typhimurium GC 2172 = assay: MIC, broth microdilution; conditions: Salmonella enterica, TYPHIMURIUM
S. aureus GC 6466 = assay: MIC, broth microdilution; conditions: Staphylococcus aureus
S. aureus GC 4536 = assay: MIC, broth microdilution; conditions: Staphylococcus aureus
S. aureus GC 2216 = assay: MIC, broth microdilution; conditions: Staphylococcus aureus
E. faecalis GC 4555 = assay: MIC, broth microdilution; conditions: Enterococcus faecalis
E. faecalis GC 2242 = assay: MIC, broth microdilution; conditions: Enterococcus faecalis
E. faecium GC 4556 = assay: MIC, broth microdilution; conditions: Enterococcus faecium
S. pneumoniae* GC 4465 = assay: MIC, broth microdilution; conditions: Streptococcus pneumoniae
S. pneumoniae+ GC 4465 = assay: MIC, broth microdilution; conditions: Streptococcus pneumoniae
S. pyogenes GC 4563 = assay: MIC, broth microdilution; conditions: Streptococcus pyogenes
S. agalactiae GC 4564 = assay: MIC, broth microdilution; conditions: Streptococcus agalactiae
E. coli = assay: Range of MIC for E. coli strains; conditions: Escherichia coli
Staph. = assay: Range of MIC for Staph. strains, including MRSA; conditions: Staphylococcus aureus
Staph. aureus Smith = assay: In vivo activity (oral, iv; ED50) against Staph. aureus Smith in mice
[1] = read-out: MINIMAL INHIBITORY CONCENTRATION MIC, pre-incubated in Human Serum
[2] = read-out: MINIMAL INHIBITORY CONCENTRATION MIC, pre-incubated in Mouse Serum
[3] = read-out: MINIMAL INHIBITORY CONCENTRATION MIC, pre-incubated in Water

MIC (E. coli GC 2236; GC2236, read-out: MINIMAL INHIBITORY CONCENTRATION MIC, pre-incubated in Human Serum): 4 µg/mL (≈ 5.48 µM)
MIC (E. coli GC 2236; GC2236, read-out: MINIMAL INHIBITORY CONCENTRATION MIC, pre-incubated in Mouse Serum): 1 µg/mL (≈ 1.37 µM)
MIC (E. coli GC 2236; GC2236, read-out: MINIMAL INHIBITORY CONCENTRATION MIC, pre-incubated in Water): 16 µg/mL (≈ 21.9 µM)
MIC (E. coli GC 2231; GC2231, read-out: MINIMAL INHIBITORY CONCENTRATION MIC, pre-incubated in Human Serum): 4 µg/mL (≈ 5.48 µM)
MIC (E. coli GC 2231; GC2231, read-out: MINIMAL INHIBITORY CONCENTRATION MIC, pre-incubated in Mouse Serum): 1 µg/mL (≈ 1.37 µM)
MIC (E. coli GC 2231; GC2231, read-out: MINIMAL INHIBITORY CONCENTRATION MIC, pre-incubated in Water): 32 µg/mL (≈ 43.8 µM)
MIC (E. coli GC 2235; GC2235, read-out: MINIMAL INHIBITORY CONCENTRATION MIC, pre-incubated in Human Serum): 4 µg/mL (≈ 5.48 µM)
MIC (E. coli GC 2235; GC2235, read-out: MINIMAL INHIBITORY CONCENTRATION MIC, pre-incubated in Mouse Serum): 0.5 µg/mL (≈ 0.685 µM)
MIC (E. coli GC 2235; GC2235, read-out: MINIMAL INHIBITORY CONCENTRATION MIC, pre-incubated in Water): 16 µg/mL (≈ 21.9 µM)
MIC (E. coli GC 2232; GC2232, read-out: MINIMAL INHIBITORY CONCENTRATION MIC, pre-incubated in Human Serum): 4 µg/mL (≈ 5.48 µM)
MIC (E. coli GC 2232; GC2232, read-out: MINIMAL INHIBITORY CONCENTRATION MIC, pre-incubated in Mouse Serum): 1 µg/mL (≈ 1.37 µM)
MIC (E. coli GC 2232; GC2232, read-out: MINIMAL INHIBITORY CONCENTRATION MIC, pre-incubated in Water): 16 µg/mL (≈ 21.9 µM)
MIC (E. coli GC 2234; GC2234, read-out: MINIMAL INHIBITORY CONCENTRATION MIC, pre-incubated in Human Serum): 4 µg/mL (≈ 5.48 µM)
MIC (E. coli GC 2234; GC2234, read-out: MINIMAL INHIBITORY CONCENTRATION MIC, pre-incubated in Mouse Serum): 0.5 µg/mL (≈ 0.685 µM)
MIC (E. coli GC 2234; GC2234, read-out: MINIMAL INHIBITORY CONCENTRATION MIC, pre-incubated in Water): 16 µg/mL (≈ 21.9 µM)
MIC (E. coli GC 4559; GC4559, read-out: MINIMAL INHIBITORY CONCENTRATION MIC, pre-incubated in Human Serum): 8 µg/mL (≈ 11 µM)
MIC (E. coli GC 4559; GC4559, read-out: MINIMAL INHIBITORY CONCENTRATION MIC, pre-incubated in Mouse Serum): 1 µg/mL (≈ 1.37 µM)
MIC (E. coli GC 4559; GC4559, read-out: MINIMAL INHIBITORY CONCENTRATION MIC, pre-incubated in Water): 64 µg/mL (≈ 87.7 µM)
MIC (S. typhimurium GC 2172; [1]): 32 µg/mL (≈ 43.8 µM)
MIC (S. typhimurium GC 2172; [2]): 2 µg/mL (≈ 2.74 µM)
MIC (S. typhimurium GC 2172; [3]): > 64 µg/mL
MIC (S. aureus GC 6466; GC6466, read-out: MINIMAL INHIBITORY CONCENTRATION MIC, pre-incubated in Human Serum): 0.25 µg/mL (≈ 0.343 µM)
MIC (S. aureus GC 6466; GC6466, read-out: MINIMAL INHIBITORY CONCENTRATION MIC, pre-incubated in Mouse Serum): 0.25 µg/mL (≈ 0.343 µM)
MIC (S. aureus GC 6466; GC6466, read-out: MINIMAL INHIBITORY CONCENTRATION MIC, pre-incubated in Water): 0.5 µg/mL (≈ 0.685 µM)
MIC (S. aureus GC 4536; GC4536, read-out: MINIMAL INHIBITORY CONCENTRATION MIC, pre-incubated in Human Serum): 0.5 µg/mL (≈ 0.685 µM)
MIC (S. aureus GC 4536; GC4536, read-out: MINIMAL INHIBITORY CONCENTRATION MIC, pre-incubated in Mouse Serum): 0.5 µg/mL (≈ 0.685 µM)
MIC (S. aureus GC 4536; GC4536, read-out: MINIMAL INHIBITORY CONCENTRATION MIC, pre-incubated in Water): 1 µg/mL (≈ 1.37 µM)
MIC (S. aureus GC 2216; GC2216, read-out: MINIMAL INHIBITORY CONCENTRATION MIC, pre-incubated in Human Serum): 0.5 µg/mL (≈ 0.685 µM)
MIC (S. aureus GC 2216; GC2216, read-out: MINIMAL INHIBITORY CONCENTRATION MIC, pre-incubated in Mouse Serum): 1 µg/mL (≈ 1.37 µM)
MIC (S. aureus GC 2216; GC2216, read-out: MINIMAL INHIBITORY CONCENTRATION MIC, pre-incubated in Water): 1 µg/mL (≈ 1.37 µM)
MIC (E. faecalis GC 4555; GC4555, read-out: MINIMAL INHIBITORY CONCENTRATION MIC, pre-incubated in Human Serum): 2 µg/mL (≈ 2.74 µM)
MIC (E. faecalis GC 4555; GC4555, read-out: MINIMAL INHIBITORY CONCENTRATION MIC, pre-incubated in Mouse Serum): 1 µg/mL (≈ 1.37 µM)
MIC (E. faecalis GC 4555; GC4555, read-out: MINIMAL INHIBITORY CONCENTRATION MIC, pre-incubated in Water): 2 µg/mL (≈ 2.74 µM)
MIC (E. faecalis GC 2242; GC2242, read-out: MINIMAL INHIBITORY CONCENTRATION MIC, pre-incubated in Human Serum): 1 µg/mL (≈ 1.37 µM)
MIC (E. faecalis GC 2242; GC2242, read-out: MINIMAL INHIBITORY CONCENTRATION MIC, pre-incubated in Mouse Serum): 1 µg/mL (≈ 1.37 µM)
MIC (E. faecalis GC 2242; GC2242, read-out: MINIMAL INHIBITORY CONCENTRATION MIC, pre-incubated in Water): 2 µg/mL (≈ 2.74 µM)
MIC (E. faecium GC 4556; GC4556, read-out: MINIMAL INHIBITORY CONCENTRATION MIC, pre-incubated in Human Serum): 1 µg/mL (≈ 1.37 µM)
MIC (E. faecium GC 4556; GC4556, read-out: MINIMAL INHIBITORY CONCENTRATION MIC, pre-incubated in Mouse Serum): 1 µg/mL (≈ 1.37 µM)
MIC (E. faecium GC 4556; GC4556, read-out: MINIMAL INHIBITORY CONCENTRATION MIC, pre-incubated in Water): 2 µg/mL (≈ 2.74 µM)
MIC (S. pneumoniae* GC 4465; [1]): 0.25 µg/mL (≈ 0.343 µM)
MIC (S. pneumoniae* GC 4465; [2]): 0.25 µg/mL (≈ 0.343 µM)
MIC (S. pneumoniae* GC 4465; [3]): 0.5 µg/mL (≈ 0.685 µM)
MIC (S. pneumoniae+ GC 4465; [1]): 2 µg/mL (≈ 2.74 µM)
MIC (S. pneumoniae+ GC 4465; [2]): 2 µg/mL (≈ 2.74 µM)
MIC (S. pneumoniae+ GC 4465; [3]): 4 µg/mL (≈ 5.48 µM)
MIC (S. pyogenes GC 4563; GC4563, read-out: MINIMAL INHIBITORY CONCENTRATION MIC, pre-incubated in Human Serum): 0.25 µg/mL (≈ 0.343 µM)
MIC (S. pyogenes GC 4563; GC4563, read-out: MINIMAL INHIBITORY CONCENTRATION MIC, pre-incubated in Mouse Serum): 0.25 µg/mL (≈ 0.343 µM)
MIC (S. pyogenes GC 4563; GC4563, read-out: MINIMAL INHIBITORY CONCENTRATION MIC, pre-incubated in Water): 0.5 µg/mL (≈ 0.685 µM)
MIC (S. agalactiae GC 4564; GC4564, read-out: MINIMAL INHIBITORY CONCENTRATION MIC, pre-incubated in Human Serum): 0.5 µg/mL (≈ 0.685 µM)
MIC (S. agalactiae GC 4564; GC4564, read-out: MINIMAL INHIBITORY CONCENTRATION MIC, pre-incubated in Mouse Serum): 0.25 µg/mL (≈ 0.343 µM)
MIC (S. agalactiae GC 4564; GC4564, read-out: MINIMAL INHIBITORY CONCENTRATION MIC, pre-incubated in Water): 0.5 µg/mL (≈ 0.685 µM)
MIC (E. coli; 20 h, read-out: Range of MIC, E. coli (Mouse Serum)): 0.5 to 2 µg/mL (≈ 0.685 to 2.74 µM)
MIC (E. coli; read-out: Minimum inhibitory concentration (MIC), E. coli (Human Serum)): 4 to 16 µg/mL (≈ 5.48 to 21.9 µM)
MIC (Staph.; MRSA, read-out: Range of MIC, Staph (Mouse Serum)): 0.25 to 1 µg/mL (≈ 0.343 to 1.37 µM)
MIC (Staph.; MRSA, read-out: Range of MIC, Staph (Water)): 0.5 to 2 µg/mL (≈ 0.685 to 2.74 µM)
MIC (Staph.; read-out: Minimum inhibitory concentration (MIC), Staph (Human Serum)): 0.12 to 1 µg/mL (≈ 0.164 to 1.37 µM)
MIC (Staph.; read-out: Minimum inhibitory concentration (MIC), Staph (Water)): 0.5 to 2 µg/mL (≈ 0.685 to 2.74 µM)
SMILES: CC(C)C(=O)OCOC(=O)N(CC(=O)Nc1cc(N(C)C)c2c(c1O)C(=O)C1=C(O)[C@]3(O)C(=O)C(C(N)=O)=C(O)[C@@H](N(C)C)[C@@H]3C[C@@H]1C2)C(C)(C)C [Example 45, ({[(2-{[(5aR,6aS,7S,10aS)-9-(aminocarbonyl)-4,7-bis(dimethylamino)-1,8,10a,11-tetrahydroxy-10,12-dioxo-5,5a,6,6a,7,10,10a,12-octahydrotetracen-2-yl]amino}-2-oxoethyl)(tert-butyl)amino]carbonyl}oxy)methyl 2-methylpropanoate]
ED50 (Staph. aureus Smith; Staphylococcus aureus, in Mus musculus, iv, read-out: ED50 SIV (Staph aureus Smith)): 0.66 mg/kg
ED50 (Staph. aureus Smith; Staphylococcus aureus, in Mus musculus, po, read-out: ED50 SOD (Staph aureus Smith)): 5.9 mg/kg
ED50 (Staph. aureus Smith; Staphylococcus aureus, in Mus musculus, po, read-out: ED50 Staph Smith SOD): 5.9 mg/kg
ED50 (Staph. aureus Smith; iv, read-out: ED50 Staph Smith SIV): 0.66 mg/kg
